Results from PMC4843002, “Identification of pyrazolopyridazinones as PDEδ inhibitors” (Nature Communications, 2016).

Assays:
AT2 (h) = molecular target: T1, AT2 (h) (Homo sapiens, UniProt P50052); assay: Cerep binding, agonist radioligand; settings: read-out: % Inhibition of Control Specific Binding
T1 construct: purchased Eurofins Pharma Discovery Services (CEREP diversity panel)

beta 2 (h) = molecular target: T2, beta 2 (h) (Homo sapiens, UniProt P07550); assay: Cerep binding, agonist radioligand; settings: read-out: % Inhibition of Control Specific Binding
T2 construct: purchased Eurofins Pharma Discovery Services (CEREP diversity panel)

H2 (h) = molecular target: T3, H2 (h) (Homo sapiens, UniProt P25021); assay: Cerep binding, antagonist radioligand; settings: read-out: % Inhibition of Control Specific Binding
T3 construct: purchased Eurofins Pharma Discovery Services (CEREP diversity panel)

[1] = system: sigma (non-selective) (h); assay: Cerep binding, agonist radioligand; design: species or system human; settings: 5 µM
CB2 (h) = molecular target: T4, CB2 (h) (Homo sapiens, UniProt P34972); assay: Cerep binding, agonist radioligand; settings: read-out: % Inhibition of Control Specific Binding
T4 construct: purchased Eurofins Pharma Discovery Services (CEREP diversity panel)

[2] = molecular target: T5, sirtuin 2 (h) (inhibitor effect) (Homo sapiens, UniProt Q8IXJ6); assay: Cerep enzyme and cell-based assays; format: biochemical; settings: read-out: % Inhibition of Control Values
T5 construct: Eurofins Pharma Discovery Services (CEREP diversity panel, outsourced assay)

PDE2A1 (h) = molecular target: T6, PDE2A1 (h) (Homo sapiens, UniProt O00408); assay: Cerep enzyme and cell-based assays; format: biochemical; settings: read-out: % Inhibition of Control Values
T6 construct: Eurofins Pharma Discovery Services (CEREP diversity panel, outsourced assay)

5-HT transporter (h) = molecular target: T7, 5-HT transporter (h) (Homo sapiens, UniProt P31645); assay: Cerep binding, antagonist radioligand; settings: read-out: % Inhibition of Control Specific Binding
T7 construct: purchased Eurofins Pharma Discovery Services (CEREP diversity panel)

alpha 1 (non-selective) = assay: Cerep binding, antagonist radioligand; settings: 5 µM
BLT1 (LTB4) (h) = molecular target: T8, BLT1 (LTB4) (h) (Homo sapiens, UniProt Q15722); assay: Cerep binding, agonist radioligand; settings: read-out: % Inhibition of Control Specific Binding
T8 construct: purchased Eurofins Pharma Discovery Services (CEREP diversity panel)

[3] = molecular target: choline transporter (CHT1) (h) (Homo sapiens, UniProt Q9GZV3); assay: Cerep binding, antagonist radioligand; settings: read-out: % Inhibition of Control Specific Binding
MC4 (h) = molecular target: T9, MC4 (h) (Homo sapiens, UniProt P32245); assay: Cerep binding, agonist radioligand; settings: read-out: % Inhibition of Control Specific Binding
T9 construct: purchased Eurofins Pharma Discovery Services (CEREP diversity panel)

PCP = assay: Cerep binding, antagonist radioligand; settings: 5 µM
D2S (h) = molecular target: T10, D2S (h) (Homo sapiens, UniProt P14416); assay: Cerep binding, antagonist radioligand; settings: read-out: % Inhibition of Control Specific Binding
T10 construct: purchased Eurofins Pharma Discovery Services (CEREP diversity panel)

5-HT (non-selective) = assay: Cerep binding, agonist radioligand; settings: 5 µM
Y (non-selective) = assay: Cerep binding, agonist radioligand; settings: 5 µM
A2A (h) = molecular target: T11, A2A (h) (Homo sapiens, UniProt P29274); assay: Cerep binding, agonist radioligand; settings: read-out: % Inhibition of Control Specific Binding
T11 construct: purchased Eurofins Pharma Discovery Services (CEREP diversity panel)

[4] = system: Ca2+ channel (L, dihydropyridine site); assay: Cerep binding, antagonist radioligand; settings: 5 µM
CRF1 (h) = molecular target: T12, CRF1 (h) (Homo sapiens, UniProt P34998); assay: Cerep binding, agonist radioligand; settings: read-out: % Inhibition of Control Specific Binding
T12 construct: purchased Eurofins Pharma Discovery Services (CEREP diversity panel)

SKCa channel = assay: Cerep binding, antagonist radioligand; settings: 5 µM
ETA (h) = molecular target: T13, ETA (h) (Homo sapiens, UniProt P25101); assay: Cerep binding, agonist radioligand; settings: read-out: % Inhibition of Control Specific Binding
T13 construct: purchased Eurofins Pharma Discovery Services (CEREP diversity panel)

PPARgamma (h) = molecular target: T14, PPARgamma (h) (Homo sapiens, UniProt P37231); assay: Cerep binding, agonist radioligand; settings: read-out: % Inhibition of Control Specific Binding
T14 construct: purchased Eurofins Pharma Discovery Services (CEREP diversity panel)

P2X = assay: Cerep binding, agonist radioligand; settings: 5 µM
Cl- channel (GABA-gated) = assay: Cerep binding, antagonist radioligand; settings: 5 µM
Eg5 (h) = molecular target: T15, Eg5 (h) (Homo sapiens, UniProt P52732); assay: Cerep enzyme and cell-based assays; format: biochemical; settings: read-out: % Inhibition of Control Values
T15 construct: Eurofins Pharma Discovery Services (CEREP diversity panel, outsourced assay)

CB1 (h) = molecular target: T16, CB1 (h) (Homo sapiens, UniProt P21554); assay: Cerep binding, agonist radioligand; settings: read-out: % Inhibition of Control Specific Binding
T16 construct: purchased Eurofins Pharma Discovery Services (CEREP diversity panel)

5-lipoxygenase (h) = molecular target: T17, 5-lipoxygenase (h) (Homo sapiens, UniProt P09917); assay: Cerep enzyme and cell-based assays; format: biochemical; settings: read-out: % Inhibition of Control Values
T17 construct: purchased Eurofins Pharma Discovery Services (CEREP diversity panel)

HDAC3 (h) = molecular target: T18, HDAC3 (h) (Homo sapiens, UniProt O15379); assay: Cerep enzyme and cell-based assays; format: biochemical; settings: read-out: % Inhibition of Control Values
T18 construct: Eurofins Pharma Discovery Services (CEREP diversity panel, outsourced assay)

B1 (h) = molecular target: T19, B1 (h) (Homo sapiens, UniProt P46663); assay: Cerep binding, agonist radioligand; settings: read-out: % Inhibition of Control Specific Binding
T19 construct: purchased Eurofins Pharma Discovery Services (CEREP diversity panel)

NK3 (h) = molecular target: T20, NK3 (h) (Homo sapiens, UniProt P29371); assay: Cerep binding, antagonist radioligand; settings: read-out: % Inhibition of Control Specific Binding
T20 construct: purchased Eurofins Pharma Discovery Services (CEREP diversity panel)

PDE1B (h) = molecular target: T21, PDE1B (h) (Homo sapiens, UniProt Q01064); assay: Cerep enzyme and cell-based assays; format: biochemical; settings: read-out: % Inhibition of Control Values
T21 construct: purchased Eurofins Pharma Discovery Services (CEREP diversity panel)

AR (h) = molecular target: T22, AR (h) (Homo sapiens, UniProt P10275, T878A); assay: Cerep binding, agonist radioligand; settings: read-out: % Inhibition of Control Specific Binding
T22 construct: purchased Eurofins Pharma Discovery Services (CEREP diversity panel)

D1 (h) = molecular target: T23, D1 (h) (Homo sapiens, UniProt P21728); assay: Cerep binding, antagonist radioligand; settings: read-out: % Inhibition of Control Specific Binding
T23 construct: purchased Eurofins Pharma Discovery Services (CEREP diversity panel)

S6P phosphorylation = assay: western blot, S6P phosphorylation in Panc-Tu-I
Procedure: To examine whether PDEδ inhibition by Deltarasin and Deltazinone 1 downregulates the signal transduction via these pathways, we examined the phosphorylation of extracellular signal regulated kinase (Erk) and S6 Ribosomal Protein (S6P) in the oncogenic KRas-dependent Panc-Tu-1 and KRas-independent PANC-1 cells. […] Cells were lysed with RIPA-buffer (20 mM Tris pH 7.5, 150 mM NaCl, 0.5 mM Na2 EDTA, 1 % sodium deoxycholate, 0.1% sodium dodecyl sulfate, 1% IGEPAL supplemented with Complete Mini EDTA-free protease inhibitor (Roche Applied Science) and 1% phosphatase inhibitor cocktail 2 and 3 (P5726 and P0044, Sigma Aldrich), scraped off after 5 min on ice and centrifuged at 14,000g for 20 min at 4 °C. SDS–polyacrylamide gel electrophoresis was carried out with 10–25 μg of whole-cell lysate from each sample. The gels were blotted onto polyvinylidene difluoride membrane (Millipore) and blocked for 1 h at room temperature. […] Blots were scanned on a LI-COR Odyssey imaging system.
Western blots were quantified using ImageJ. The background of the blots was subtracted by applying the rolling ball subtraction with a radius of 50 pixels. Afterwards the integrated intensity of the bands was measured.

V2 (h) = molecular target: T24, V2 (h) (Homo sapiens, UniProt P30518); assay: Cerep binding, agonist radioligand; settings: read-out: % Inhibition of Control Specific Binding
T24 construct: purchased Eurofins Pharma Discovery Services (CEREP diversity panel)

GABA (non-selective) = assay: Cerep binding, agonist radioligand; settings: 5 µM
NOP (ORL1) (h) = molecular target: T25, NOP (ORL1) (h) (Homo sapiens, UniProt P41146); assay: Cerep binding, agonist radioligand; settings: read-out: % Inhibition of Control Specific Binding
T25 construct: purchased Eurofins Pharma Discovery Services (CEREP diversity panel)

D4.4 (h) = molecular target: T26, D4.4 (h) (Homo sapiens, UniProt P21917); assay: Cerep binding, antagonist radioligand; settings: read-out: % Inhibition of Control Specific Binding
T26 construct: purchased Eurofins Pharma Discovery Services (CEREP diversity panel)

beta 1 (h) = molecular target: T27, beta 1 (h) (Homo sapiens, UniProt P08588); assay: Cerep binding, agonist radioligand; settings: read-out: % Inhibition of Control Specific Binding
T27 construct: purchased Eurofins Pharma Discovery Services (CEREP diversity panel)

[5] = molecular target: T28, norepinephrine transporter (h) (Homo sapiens, UniProt P23975); assay: Cerep binding, antagonist radioligand; settings: read-out: % Inhibition of Control Specific Binding
T28 construct: purchased Eurofins Pharma Discovery Services (CEREP diversity panel)

CCK2 (CCKB) (h) = molecular target: T29, CCK2 (CCKB) (h) (Homo sapiens, UniProt P32239); assay: Cerep binding, agonist radioligand; settings: read-out: % Inhibition of Control Specific Binding
T29 construct: purchased Eurofins Pharma Discovery Services (CEREP diversity panel)

NMDA = assay: Cerep binding, antagonist radioligand; settings: 5 µM
EP2 (h) = molecular target: T30, EP2 (h) (Homo sapiens, UniProt P43116); assay: Cerep binding, agonist radioligand; settings: read-out: % Inhibition of Control Specific Binding
T30 construct: purchased Eurofins Pharma Discovery Services (CEREP diversity panel)

KV channel = assay: Cerep binding, antagonist radioligand; settings: 5 µM
A3 (h) = molecular target: T31, A3 (h) (Homo sapiens, UniProt P0DMS8); assay: Cerep binding, agonist radioligand; settings: read-out: % Inhibition of Control Specific Binding
T31 construct: purchased Eurofins Pharma Discovery Services (CEREP diversity panel)

opioid (non-selective) = assay: Cerep binding, antagonist radioligand; settings: 5 µM

T20 sequence (P29371 whole entry): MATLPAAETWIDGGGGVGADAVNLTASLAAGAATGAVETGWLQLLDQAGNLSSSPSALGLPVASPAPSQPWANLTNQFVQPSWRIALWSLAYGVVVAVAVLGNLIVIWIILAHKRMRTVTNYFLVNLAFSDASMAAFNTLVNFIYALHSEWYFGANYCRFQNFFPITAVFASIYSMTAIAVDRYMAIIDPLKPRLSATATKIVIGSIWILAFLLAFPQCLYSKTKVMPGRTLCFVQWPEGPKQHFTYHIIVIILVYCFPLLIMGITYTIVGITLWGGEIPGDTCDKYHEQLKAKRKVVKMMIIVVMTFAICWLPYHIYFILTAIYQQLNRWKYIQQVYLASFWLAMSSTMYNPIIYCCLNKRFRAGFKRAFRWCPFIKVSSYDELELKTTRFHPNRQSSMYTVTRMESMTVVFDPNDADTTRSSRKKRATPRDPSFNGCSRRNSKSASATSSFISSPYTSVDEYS
T17 sequence (P09917 whole entry): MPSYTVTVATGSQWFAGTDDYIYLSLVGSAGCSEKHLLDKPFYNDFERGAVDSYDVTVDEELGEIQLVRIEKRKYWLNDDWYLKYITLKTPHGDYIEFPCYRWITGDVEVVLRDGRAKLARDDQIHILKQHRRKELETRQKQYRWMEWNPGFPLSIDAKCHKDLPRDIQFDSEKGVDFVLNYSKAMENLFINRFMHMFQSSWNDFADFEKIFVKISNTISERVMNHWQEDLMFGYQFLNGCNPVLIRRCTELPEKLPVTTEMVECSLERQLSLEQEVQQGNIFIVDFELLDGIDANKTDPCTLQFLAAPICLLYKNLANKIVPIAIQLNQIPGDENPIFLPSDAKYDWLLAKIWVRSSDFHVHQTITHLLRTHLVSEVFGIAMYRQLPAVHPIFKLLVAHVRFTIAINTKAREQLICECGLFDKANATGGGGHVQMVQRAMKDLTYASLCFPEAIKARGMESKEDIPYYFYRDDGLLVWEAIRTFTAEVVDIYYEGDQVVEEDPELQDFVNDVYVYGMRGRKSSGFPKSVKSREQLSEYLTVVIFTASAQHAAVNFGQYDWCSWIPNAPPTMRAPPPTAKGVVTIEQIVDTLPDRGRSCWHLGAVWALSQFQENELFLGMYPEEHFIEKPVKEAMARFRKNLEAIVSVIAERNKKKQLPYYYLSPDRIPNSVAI
T5 sequence (Q8IXJ6 whole entry): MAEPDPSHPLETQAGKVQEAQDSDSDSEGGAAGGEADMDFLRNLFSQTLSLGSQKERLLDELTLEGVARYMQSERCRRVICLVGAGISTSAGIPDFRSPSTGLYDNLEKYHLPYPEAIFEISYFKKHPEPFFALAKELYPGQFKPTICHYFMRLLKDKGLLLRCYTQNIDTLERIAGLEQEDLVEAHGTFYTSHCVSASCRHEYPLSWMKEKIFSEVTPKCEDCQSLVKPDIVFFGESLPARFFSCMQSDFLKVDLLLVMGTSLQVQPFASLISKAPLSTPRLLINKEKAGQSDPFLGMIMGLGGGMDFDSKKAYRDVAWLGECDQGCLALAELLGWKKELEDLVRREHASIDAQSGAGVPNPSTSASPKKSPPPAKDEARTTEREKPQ
T13 sequence (P25101 21-427): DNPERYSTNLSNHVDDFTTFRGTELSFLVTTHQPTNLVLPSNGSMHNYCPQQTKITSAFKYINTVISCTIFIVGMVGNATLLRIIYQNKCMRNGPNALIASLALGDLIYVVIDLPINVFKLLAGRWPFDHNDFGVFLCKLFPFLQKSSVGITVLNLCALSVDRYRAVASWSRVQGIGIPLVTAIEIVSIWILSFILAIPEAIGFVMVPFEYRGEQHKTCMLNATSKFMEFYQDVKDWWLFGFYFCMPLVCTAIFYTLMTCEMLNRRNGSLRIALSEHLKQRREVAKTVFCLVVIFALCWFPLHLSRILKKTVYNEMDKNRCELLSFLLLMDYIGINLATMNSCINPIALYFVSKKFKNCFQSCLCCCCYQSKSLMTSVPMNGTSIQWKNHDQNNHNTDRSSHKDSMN
T2 sequence (P07550 whole entry): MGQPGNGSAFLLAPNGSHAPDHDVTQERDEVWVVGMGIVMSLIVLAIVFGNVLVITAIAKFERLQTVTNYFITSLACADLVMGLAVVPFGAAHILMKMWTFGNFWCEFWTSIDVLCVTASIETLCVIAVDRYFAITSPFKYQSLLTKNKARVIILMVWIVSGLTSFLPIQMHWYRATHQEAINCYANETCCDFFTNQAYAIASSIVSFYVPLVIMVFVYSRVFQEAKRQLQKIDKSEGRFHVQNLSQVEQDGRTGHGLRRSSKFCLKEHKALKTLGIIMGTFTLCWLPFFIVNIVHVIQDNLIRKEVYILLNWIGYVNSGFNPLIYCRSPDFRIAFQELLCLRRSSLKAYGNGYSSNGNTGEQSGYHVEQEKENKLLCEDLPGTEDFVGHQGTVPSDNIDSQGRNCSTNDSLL
T8 sequence (Q15722 whole entry): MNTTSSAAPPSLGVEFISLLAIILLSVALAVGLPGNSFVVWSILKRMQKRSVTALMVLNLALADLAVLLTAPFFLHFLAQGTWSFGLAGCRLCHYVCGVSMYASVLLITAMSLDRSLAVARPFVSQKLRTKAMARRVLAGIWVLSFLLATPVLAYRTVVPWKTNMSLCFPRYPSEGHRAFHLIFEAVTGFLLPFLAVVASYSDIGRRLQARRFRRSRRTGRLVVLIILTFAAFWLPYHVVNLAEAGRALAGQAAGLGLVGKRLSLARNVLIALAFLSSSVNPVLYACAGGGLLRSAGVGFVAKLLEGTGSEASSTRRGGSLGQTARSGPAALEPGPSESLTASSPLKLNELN
T6 sequence (O00408 1-920 isoform O00408-2): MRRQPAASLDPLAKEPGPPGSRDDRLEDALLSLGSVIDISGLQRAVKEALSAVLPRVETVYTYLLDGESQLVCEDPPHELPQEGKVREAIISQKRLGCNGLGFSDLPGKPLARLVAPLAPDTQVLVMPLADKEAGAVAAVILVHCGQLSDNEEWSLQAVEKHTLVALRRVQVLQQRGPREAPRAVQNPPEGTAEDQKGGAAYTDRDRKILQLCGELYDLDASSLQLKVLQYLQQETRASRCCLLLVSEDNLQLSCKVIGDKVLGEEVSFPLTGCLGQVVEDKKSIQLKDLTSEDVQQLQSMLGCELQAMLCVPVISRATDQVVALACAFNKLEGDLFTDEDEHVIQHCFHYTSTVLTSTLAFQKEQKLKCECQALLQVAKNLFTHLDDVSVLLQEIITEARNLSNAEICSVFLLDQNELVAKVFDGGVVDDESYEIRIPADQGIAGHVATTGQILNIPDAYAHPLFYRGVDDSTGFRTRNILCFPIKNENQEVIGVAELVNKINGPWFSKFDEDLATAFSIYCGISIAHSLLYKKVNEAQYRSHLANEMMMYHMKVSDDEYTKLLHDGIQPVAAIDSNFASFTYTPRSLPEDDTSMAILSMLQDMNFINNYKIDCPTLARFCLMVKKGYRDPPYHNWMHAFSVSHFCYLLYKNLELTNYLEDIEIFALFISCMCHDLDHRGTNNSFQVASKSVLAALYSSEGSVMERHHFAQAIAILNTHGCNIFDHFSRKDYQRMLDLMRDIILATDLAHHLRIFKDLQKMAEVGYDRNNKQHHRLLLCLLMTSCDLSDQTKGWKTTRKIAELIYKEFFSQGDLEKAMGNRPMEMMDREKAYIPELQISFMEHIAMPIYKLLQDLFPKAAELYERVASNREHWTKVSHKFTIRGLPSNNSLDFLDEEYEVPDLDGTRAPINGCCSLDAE
T4 sequence (P34972 whole entry): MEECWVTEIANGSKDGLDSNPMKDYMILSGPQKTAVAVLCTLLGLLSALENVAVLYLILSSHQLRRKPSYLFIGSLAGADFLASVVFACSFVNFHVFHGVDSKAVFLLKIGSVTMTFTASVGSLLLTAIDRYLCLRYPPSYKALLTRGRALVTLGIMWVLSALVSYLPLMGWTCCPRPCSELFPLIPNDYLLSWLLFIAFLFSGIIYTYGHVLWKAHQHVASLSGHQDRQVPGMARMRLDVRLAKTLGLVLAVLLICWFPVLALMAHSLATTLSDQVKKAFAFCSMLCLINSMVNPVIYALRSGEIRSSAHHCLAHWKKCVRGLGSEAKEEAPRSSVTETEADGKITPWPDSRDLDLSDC
T22 sequence (P10275 whole entry T878A): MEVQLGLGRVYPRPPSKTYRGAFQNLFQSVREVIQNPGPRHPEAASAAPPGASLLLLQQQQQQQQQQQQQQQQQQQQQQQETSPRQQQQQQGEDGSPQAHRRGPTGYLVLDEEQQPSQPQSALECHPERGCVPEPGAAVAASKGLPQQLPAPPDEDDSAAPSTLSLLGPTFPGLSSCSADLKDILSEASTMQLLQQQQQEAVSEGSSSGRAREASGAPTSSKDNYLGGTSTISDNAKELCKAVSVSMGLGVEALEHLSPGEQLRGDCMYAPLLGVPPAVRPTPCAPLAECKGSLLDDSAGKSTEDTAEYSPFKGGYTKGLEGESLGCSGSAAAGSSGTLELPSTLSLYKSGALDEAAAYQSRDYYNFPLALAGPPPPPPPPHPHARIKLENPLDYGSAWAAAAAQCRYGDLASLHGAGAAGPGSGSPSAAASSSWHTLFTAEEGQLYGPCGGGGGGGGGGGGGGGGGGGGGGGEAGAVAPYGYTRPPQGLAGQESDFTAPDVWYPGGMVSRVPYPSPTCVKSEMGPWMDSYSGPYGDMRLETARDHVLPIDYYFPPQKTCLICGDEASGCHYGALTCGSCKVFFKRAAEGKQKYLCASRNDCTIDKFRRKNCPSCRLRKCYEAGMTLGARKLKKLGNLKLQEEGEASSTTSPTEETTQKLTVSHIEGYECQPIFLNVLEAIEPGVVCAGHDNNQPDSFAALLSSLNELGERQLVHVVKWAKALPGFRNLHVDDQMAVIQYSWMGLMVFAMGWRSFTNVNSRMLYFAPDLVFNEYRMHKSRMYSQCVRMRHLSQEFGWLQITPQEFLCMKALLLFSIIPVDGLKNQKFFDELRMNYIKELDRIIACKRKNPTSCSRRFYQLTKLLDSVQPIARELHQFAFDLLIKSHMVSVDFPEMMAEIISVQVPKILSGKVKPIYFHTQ

Cc1ccc(-n2nc3c(=O)n(CCCC(=O)NCC(C)c4ccccc4)nc(C)c3c2C)cc1 (centres unmarked) [2k]
inhibition at 5 µM (AT2 (h)): 10% | inhibition at 5 µM (beta 2 (h)): 9% | inhibition at 5 µM (H2 (h)): 5% | % Inhibition of Control Specific Binding [1]: 3% | inhibition at 5 µM (CB2 (h)): 12% | inhibition at 5 µM [2]: 6% | inhibition at 5 µM (PDE2A1 (h)): 2% | inhibition at 5 µM (5-HT transporter (h)): -8% | % Inhibition of Control Specific Binding (alpha 1 (non-selective)): 4% | inhibition at 5 µM (BLT1 (LTB4) (h)): 16% | inhibition at 5 µM [3]: 18% | inhibition at 5 µM (MC4 (h)): -1% | % Inhibition of Control Specific Binding (PCP): -8% | inhibition at 5 µM (D2S (h)): -1% | % Inhibition of Control Specific Binding (5-HT (non-selective)): -25% | % Inhibition of Control Specific Binding (Y (non-selective)): -19% | inhibition at 5 µM (A2A (h)): -6% | % Inhibition of Control Specific Binding [4]: -2% | inhibition at 5 µM (CRF1 (h)): -43% | % Inhibition of Control Specific Binding (SKCa channel): 0% | inhibition at 5 µM (ETA (h)): -7% | inhibition at 5 µM (PPARgamma (h)): -14% | % Inhibition of Control Specific Binding (P2X): 1% | % Inhibition of Control Specific Binding (Cl- channel (GABA-gated)): 17% | inhibition at 5 µM (Eg5 (h)): 3% | inhibition at 5 µM (CB1 (h)): -12% | inhibition at 5 µM (5-lipoxygenase (h)): 1% | inhibition at 5 µM (HDAC3 (h)): 0% | inhibition at 5 µM (B1 (h)): -4% | inhibition at 5 µM (NK3 (h)): 17% | inhibition at 5 µM (PDE1B (h)): 7% | inhibition at 5 µM (AR (h)): 5% | inhibition at 5 µM (D1 (h)): 2% | S6P phosphorylation (S6P phosphorylation; 20 μM, longer incubation times (>3 h)): further decreased | EGF-induced S6P phosphorylation (S6P phosphorylation; 1 h, 5 μM Deltarasin or 20 μM Deltazinone 1, 5 min EGF): reduced S6P phosphorylation | inhibition at 5 µM (V2 (h)): -4% | % Inhibition of Control Specific Binding (GABA (non-selective)): -7% | inhibition at 5 µM (NOP (ORL1) (h)): 6% | inhibition at 5 µM (D4.4 (h)): 2% | inhibition at 5 µM (beta 1 (h)): -1% | inhibition at 5 µM [5]: 8% | inhibition at 5 µM (CCK2 (CCKB) (h)): -22% | % Inhibition of Control Specific Binding (NMDA): 1% | inhibition at 5 µM (EP2 (h)): 6% | % Inhibition of Control Specific Binding (KV channel): -8% | inhibition at 5 µM (A3 (h)): 59% | % Inhibition of Control Specific Binding (opioid (non-selective)): 42%
